Among the data in patent US10780092B2, “Fused pyrazine derivatives useful as soluble guanylate cyclase stimulators” (Merck Sharp & Dohme Corp., priority 2016, dated 2020) are Ki, Emax and EC50 values, retold here.

Test [1] addresses human recombinant sGC enzyme (Homo sapiens (Human), UniProt Q02108+Q02153). Description: SEC competition binding assay with [3H] Compound B radioligand. The following applies: displacement of 1.6 nM [3H] Compound B, 24 h at 37° C. The essentials: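 Recombinant human sGC incubated with 1.6 nM [3H] Compound B and test compounds for 24 h at 37° C. Buffer: 50 mM triethanolamine pH 7.4, 3 mM MgCl2, 0.025% BSA, 2 mM DTT, 300 μM DETA/NO, 400 μM GTP, 1% DMSO. Bound ligand separated by gel filtration and counted by scintillation; non-specific binding with 1 μM Compound B; Ki from one-site fit.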

In another test the target is sGC α1/β1 heterodimer (Homo sapiens (Human), UniProt Q02108+Q02153). Description: Cell-based sGC functional assay (CASA assay), cGMP by HTRF. The following applies: CHO-K1/sGC cells; for Emax: CHO-K1, cGMP production as percentage of maximum of compound A (set to 100%), read-out: % Activation; for EC50: inflection point of cGMP production, 4P fit, read-out: IP. Summed up: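 CHO-K1 cells stably expressing human sGC α1/β1, with 0.5 mM IBMX, pre-incubated ±1 μM DETA-NO 30 min at 25° C, then compound 1 hr at 37° C (2.5% DMSO). cGMP by HTRF; activation as % of reference activator maximum, 4P fit giving inflection point and maximum […].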

The structures appear in SMILES notation.

For the compound `CC1(c2ccc(O)c(F)c2)C(=O)Nc2nc(-c3cn4ccnc4c(Cc4cccc(Cl)c4)n3)nc(N)c21` (stereo not drawn) [Example 126-B, 4-Amino-2-{8-[(3-chlorophenyl)methyl]-imidazo[1,2-a]pyrazin-6-yl}-5-(3-fluoro-4-hydroxy-phenyl)-5-methyl-5,7-dihydro-6H-pyrrolo-[2,3-d]pyrimidin-6-one], the Ki in test [1] amounted to 1.1 nM. At sGC α1/β1 heterodimer, the Emax amounted to 206% and the EC50 is 391 nM.

For the compound `CC1(c2ccc(F)c(Cl)c2O)C(=O)Nc2nc(-c3cn4ccnc4c(Cc4cc(F)cc(F)c4)n3)nc(N)c21` (stereo not drawn) [Example 96-B, 4-Amino-5-(3-chloro-4-fluoro-2-hydroxyphenyl)-2-{8-[(3,5-difluorophenyl)methyl]imidazo[1,2-a]pyrazin-6-yl}-5-methyl-5,7-dihydro-6H-pyrrolo[2,3-d]pyrimidin-6-one], the Ki in test [1] was 0.862 nM. Also, on sGC α1/β1 heterodimer, the Emax was 169% and the EC50 was 138 nM.

Consider `CC1(c2ccc(F)c(O)c2)C(=O)Nc2nc(-c3cn4ncnc4c(CCC(F)(F)C(F)(F)F)n3)nc(N)c21` (racemic) [Example 114-B, 4-Amino-5-(4-fluoro-3-hydroxyphenyl)-5-methyl-2-(8-(3,3,4,4,4-pentafluorobutyl)-[1,2,4]-triazolo[1,5-a]pyrazin-6-yl)-5,7-dihydro-6H-pyrrolo(2,3-d]pyrimidin-6-one], for which the Ki in test [1] is 4.95 nM. Also, on sGC α1/β1 heterodimer, the Emax was 112% and the EC50 worked out at 137 nM.

As to `CC1(c2ccc(Cl)c(O)c2)C(=O)Nc2nc(-c3cn4ccnc4c(Cc4cc(F)ccc4F)n3)nc(N)c21` (stereo not drawn) [Example 19-A, 4-Amino-5-(4-chloro-3-hydroxyphenyl)-2-{8-[(2,5-difluorophenyl)methyl]imidazo[1,2-a]pyrazin-6-yl}-5-methyl-5,7-dihydro-6H-pyrrolo[2,3-d]pyrimidin-6-one], the Ki in test [1] was 0.17 nM. Further, at sGC α1/β1 heterodimer, the Emax came out at 152% and the EC50 is 78 nM.

For the compound `CC1(c2cc(Cl)c(O)cn2)C(=O)Nc2nc(-c3cn4ccnc4c(Cc4ccccc4F)n3)nc(N)c21` (single isomer, unassigned) [Example 104-B, 4-Amino-5-(4-chloro-5-hydroxypyridin-2-yl)-2-{8-[(2-fluorophenyl)methyl]imidazo[1,2-a]pyrazin-6-yl}-5-methyl-5,7-dihydro-6H-pyrrolo[2,3-d]pyrimidin-6-one], the Ki in test [1] is 1.1 nM. Besides, at sGC α1/β1 heterodimer, the Emax is 144% and the EC50 came to 813 nM.

As for `CCCCc1nc(-c2nc(N)c3c(n2)NC(=O)C3(C)c2ccc(O)c(Cl)c2)cn2ncnc12` (stereo not drawn) [Example 74-B, 4-Amino-2-(8-butyl-[1,2,4]triazolo[1,5-a]pyrazin-6-yl)-5-(3-chloro-4-hydroxyphenyl)-5-methyl-5,7-dihydro-6H-pyrrolo[2,3-d]pyrimidin-6-one], the inhibition constant (Ki) in test [1] is 6.17 nM. Moreover, on sGC α1/β1 heterodimer, the Emax amounted to 122% and the EC50 turned out to be 131 nM.

With `CC1(c2ccc(O)c(F)c2)C(=O)Nc2nc(-c3cn4ncnc4c(Cc4ccc(F)cc4)n3)nc(N)c21` (stereo not drawn) [Example 41-B, 4-Amino-5-(3-fluoro-4-hydroxyphenyl)-2-{8-[(4-fluorophenyl)methyl]-[1,2,4]triazolo[1,5-a]pyrazin-6-yl}-5-methyl-5,7-dihydro-6H-pyrrolo[2,3-d]pyrimidin-6-one], in test [1], the Ki was 0.49 nM. Further, on sGC α1/β1 heterodimer, the Emax came out at 136% and the EC50 came out at 588 nM.

Consider `CC1(c2cc(O)c(Cl)c(F)c2)C(=O)Nc2nc(-c3cn4ccnc4c(Cc4cc(F)cc(F)c4F)n3)nc(N)c21` (stereo not drawn) [Example 7-B, 4-Amino-5-(4-chloro-3-fluoro-5-hydroxyphenyl)-5-methyl-2-{8-[(2,3,5-trifluorophenyl)methyl]imidazo[1,2-a]pyrazin-6-yl}-5,7-dihydro-6H-pyrrolo[2,3-d]pyrimidin-6-one], for which the Ki in test [1] was found to be 0.098 nM. In addition, at sGC α1/β1 heterodimer, the Emax stood at 102% and the EC50 was 217 nM.

One may read the Ki as the equilibrium dissociation constant of an inhibitor or competing ligand from its target.
